Measurements as given in BindingDB's records for doi:10.1021/jm00098a008 (University of Minnesota, 1992).

Molecular target: Alcohol dehydrogenase 1 (Saccharomyces cerevisiae) (UniProt P00330)
Assay: Inhibitory activity against yeast alcohol dehydrogenase

Chain of Alcohol dehydrogenase 1 (Saccharomyces cerevisiae) (P00330 whole entry, looked up): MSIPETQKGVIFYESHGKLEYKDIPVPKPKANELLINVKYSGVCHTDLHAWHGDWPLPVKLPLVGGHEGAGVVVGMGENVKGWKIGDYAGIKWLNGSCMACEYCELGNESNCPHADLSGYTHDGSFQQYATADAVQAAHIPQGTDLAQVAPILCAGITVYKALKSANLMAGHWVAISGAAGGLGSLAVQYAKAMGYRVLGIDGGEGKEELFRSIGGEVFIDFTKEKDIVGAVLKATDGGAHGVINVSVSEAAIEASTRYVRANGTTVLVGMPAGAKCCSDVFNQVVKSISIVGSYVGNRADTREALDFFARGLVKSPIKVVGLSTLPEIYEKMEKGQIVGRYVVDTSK

Row | Compound | IC50 [µM]
1 | CC(=O)ON(C(C)=O)S(=O)(=O)c1ccc(Cl)cc1 | 39
2 | N#CN(OC(=O)c1ccccc1)C(=O)c1ccccc1 | 25
